ChEMBL document CHEMBL1201862, “PubChem BioAssay data set” (2004)
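Cultured in 96-well plates, cells were exposed to test compound for 48 hours across five concentrations. Here, GI50 denotes the concentration required for 50% inhibition of growth.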 Activity calls are given as the source filed them. Rule as the data show it: active = GI50 up to about 1.1 µM and inactive = higher.

What was measured:
Experiment in all cases: growth of human tumour cells (NCI), 48 h
RXF 393 = test system: RXF 393
UACC-62 = test system: UACC-62
MDA-MB-231 = test system: MDA-MB-231
HCC 2998 = test system: HCC 2998
Malme-3M = test system: Malme-3M
SK-MEL-2 = test system: SK-MEL-2
MDA-MB-435 = test system: MDA-MB-435
SK-MEL-28 = test system: SK-MEL-28
EKVX = test system: EKVX
NCI-H522 = test system: NCI-H522
HT-29 = test system: HT-29
NCI/ADR-RES = test system: NCI/ADR-RES
HOP-62 = test system: HOP-62
SNB-19 = test system: SNB-19
OVCAR-3 = test system: OVCAR-3
SNB-75 = test system: SNB-75
ACHN = test system: ACHN
OVCAR-5 = test system: OVCAR-5
UO-31 = test system: UO-31
SR = test system: SR

Measured: GI50

COc1cc(C)c(/C=C2/N=C(c3ccccc3)OC2=O)c([N+](=O)[O-])c1OC
inactive: RXF 393 > 100 µM | UACC-62 > 100 µM | MDA-MB-231 > 100 µM | HCC 2998 > 100 µM | Malme-3M > 100 µM | SK-MEL-2 > 100 µM | MDA-MB-435 > 100 µM | SK-MEL-28 > 100 µM | EKVX > 100 µM | NCI-H522 > 100 µM | HT-29 > 100 µM | NCI/ADR-RES > 100 µM | HOP-62 > 100 µM | SNB-19 > 100 µM | OVCAR-3 > 100 µM | SNB-75 89.1 µM | ACHN > 100 µM | OVCAR-5 > 100 µM

O=C1N[C@H](C(=O)O)[C@@H](c2ccc(OCc3ccccc3)cc2)O1
inactive: UO-31 > 100 µM | RXF 393 12.9 µM | UACC-62 67.5 µM | MDA-MB-231 23.2 µM | HCC 2998 > 100 µM | Malme-3M > 100 µM | SK-MEL-2 26.2 µM | MDA-MB-435 > 100 µM | SK-MEL-28 > 100 µM | EKVX 22.4 µM | NCI-H522 37.3 µM | HT-29 > 100 µM | NCI/ADR-RES 22.5 µM | HOP-62 13.6 µM | SNB-19 17.7 µM | OVCAR-3 92.5 µM | SNB-75 10.8 µM | ACHN 36.5 µM | OVCAR-5 > 100 µM

O=C(O)[C@@H]1CCS(=O)(=O)N1
inactive: RXF 393 > 100 µM | UACC-62 > 100 µM | MDA-MB-231 > 100 µM | HCC 2998 > 100 µM | Malme-3M > 100 µM | SK-MEL-2 > 100 µM | MDA-MB-435 > 100 µM | SK-MEL-28 > 100 µM | EKVX > 100 µM | NCI-H522 > 100 µM | HT-29 > 100 µM | NCI/ADR-RES > 100 µM | HOP-62 > 100 µM | SNB-19 > 100 µM | OVCAR-3 > 100 µM | ACHN > 100 µM | SR > 100 µM | OVCAR-5 > 100 µM

CC1OC(OC2C(O[C@H]3CC[C@@H]4C(=CC[C@@H]5[C@@]4(C)C(=O)C[C@]4(C)[C@@H]([C@H](C)CC[C@@H](O)C(C)(C)O)CC[C@@]54C)C3(C)C)OC(CO)C(O)C2O)C(O)C(O)C1O (some centres undefined)
inactive: UO-31 > 100 µM | RXF 393 > 100 µM | UACC-62 > 100 µM | MDA-MB-231 > 100 µM | HCC 2998 > 100 µM | Malme-3M > 100 µM | SK-MEL-2 > 100 µM | MDA-MB-435 > 100 µM | SK-MEL-28 > 100 µM | EKVX > 100 µM | NCI-H522 > 100 µM | HT-29 > 100 µM | NCI/ADR-RES > 100 µM | HOP-62 > 100 µM | SNB-19 > 100 µM | OVCAR-3 > 100 µM | SNB-75 > 100 µM | ACHN > 100 µM | OVCAR-5 > 100 µM

O=C1COc2ccc([N+](=O)[O-])cc2C(=O)C1
inactive: UO-31 > 10 µM | RXF 393 > 10 µM | UACC-62 > 10 µM | MDA-MB-231 > 10 µM | HCC 2998 > 10 µM | Malme-3M > 10 µM | SK-MEL-2 > 10 µM | MDA-MB-435 > 10 µM | SK-MEL-28 > 10 µM | EKVX > 10 µM | HT-29 > 10 µM | NCI/ADR-RES > 10 µM | HOP-62 > 10 µM | SNB-19 > 10 µM | OVCAR-3 > 10 µM | ACHN > 10 µM | SR > 10 µM | OVCAR-5 > 10 µM

Cc1ccc2c(c1)S(=O)(=O)c1ccc3ccccc3c1N2
inactive: UO-31 > 100 µM | RXF 393 > 100 µM | UACC-62 > 100 µM | MDA-MB-231 > 100 µM | HCC 2998 > 100 µM | SK-MEL-2 > 100 µM | MDA-MB-435 > 100 µM | SK-MEL-28 > 100 µM | EKVX > 100 µM | NCI-H522 > 100 µM | HT-29 > 100 µM | NCI/ADR-RES > 100 µM | HOP-62 > 100 µM | SNB-19 > 100 µM | OVCAR-3 > 100 µM | ACHN > 100 µM | SR 15.4 µM | OVCAR-5 > 100 µM

C=CCC1C(O[Si](C)(C)C(C)(C)C)C(CO[Si](C)(C)C(C)(C)C)OC1n1ccc(=O)[nH]c1=O (centres undefined)
inactive: UO-31 1.36 µM | RXF 393 1.8 µM | UACC-62 1.73 µM | MDA-MB-231 1.79 µM | HCC 2998 1.63 µM | SK-MEL-2 2.14 µM | MDA-MB-435 1.47 µM | SK-MEL-28 1.58 µM | EKVX 1.41 µM | HT-29 1.44 µM | NCI/ADR-RES 1.66 µM | HOP-62 1.98 µM | SNB-19 1.61 µM | OVCAR-3 1.6 µM | SNB-75 1.24 µM | ACHN 1.6 µM | SR 2.07 µM | OVCAR-5 1.28 µM

O=C(N/N=C1\CCc2ccccc2C1)N/N=C1\CCc2ccccc2C1
inactive: UO-31 > 10 µM | RXF 393 > 10 µM | MDA-MB-231 > 10 µM | HCC 2998 > 10 µM | Malme-3M > 10 µM | SK-MEL-2 > 10 µM | MDA-MB-435 > 10 µM | EKVX > 10 µM | NCI-H522 > 10 µM | HT-29 > 10 µM | NCI/ADR-RES > 10 µM | HOP-62 > 10 µM | SNB-19 > 10 µM | OVCAR-3 > 10 µM | ACHN > 10 µM | SR > 10 µM | OVCAR-5 > 10 µM

COc1ccc2c(c1)CC1(O)COc3cc(OC)ccc3C1O2 (centres undefined)
inactive: UO-31 > 100 µM | UACC-62 > 100 µM | MDA-MB-231 > 100 µM | HCC 2998 77.8 µM | Malme-3M > 100 µM | SK-MEL-2 > 100 µM | MDA-MB-435 > 100 µM | EKVX > 100 µM | NCI-H522 > 100 µM | HT-29 > 100 µM | NCI/ADR-RES 68.9 µM | HOP-62 > 100 µM | OVCAR-3 > 100 µM | ACHN > 100 µM | SR > 100 µM | OVCAR-5 > 100 µM

COc1cc(O)c2c(c1)OCC1(Cc3cc(OC)c(OC)cc31)C2=O (centres undefined)
inactive: UO-31 > 100 µM | RXF 393 > 100 µM | UACC-62 63.2 µM | MDA-MB-231 83 µM | Malme-3M 87.7 µM | SK-MEL-2 > 100 µM | MDA-MB-435 29 µM | SK-MEL-28 > 100 µM | NCI-H522 84.9 µM | HT-29 > 100 µM | NCI/ADR-RES 88.9 µM | HOP-62 > 100 µM | SNB-19 > 100 µM | OVCAR-3 34 µM | SNB-75 78.3 µM | ACHN > 100 µM | SR 68.7 µM | OVCAR-5 > 100 µM

CCNc1ncnc2c1nnn2CC
inactive: UO-31 > 100 µM | RXF 393 > 100 µM | UACC-62 > 100 µM | MDA-MB-231 > 100 µM | HCC 2998 > 100 µM | Malme-3M > 100 µM | SK-MEL-2 > 100 µM | MDA-MB-435 > 100 µM | SK-MEL-28 > 100 µM | EKVX > 100 µM | NCI-H522 > 100 µM | HT-29 > 100 µM | NCI/ADR-RES > 100 µM | HOP-62 > 100 µM | SNB-19 > 100 µM | OVCAR-3 > 100 µM | SNB-75 77.1 µM | ACHN > 100 µM

OCC1OC(c2ccccc2)CC1O (centres undefined)
inactive: UO-31 > 100 µM | RXF 393 > 100 µM | UACC-62 > 100 µM | MDA-MB-231 > 100 µM | SK-MEL-2 > 100 µM | MDA-MB-435 > 100 µM | SK-MEL-28 > 100 µM | EKVX > 100 µM | HT-29 > 100 µM | NCI/ADR-RES > 100 µM | SNB-19 > 100 µM | OVCAR-3 > 100 µM | SNB-75 > 100 µM | ACHN > 100 µM | SR > 100 µM | OVCAR-5 > 100 µM

COc1ccc(CCNC(=O)c2ccccc2C2c3ccc(OCc4ccccc4)cc3Oc3cc(OCc4ccccc4)ccc32)cc1OC
inactive: UO-31 > 100 µM | RXF 393 > 100 µM | UACC-62 > 100 µM | MDA-MB-231 > 100 µM | HCC 2998 > 100 µM | Malme-3M > 100 µM | SK-MEL-2 > 100 µM | MDA-MB-435 > 100 µM | SK-MEL-28 > 100 µM | EKVX > 100 µM | NCI-H522 > 100 µM | HT-29 > 100 µM | NCI/ADR-RES > 100 µM | HOP-62 > 100 µM | SNB-19 > 100 µM | OVCAR-3 > 100 µM | ACHN > 100 µM | SR > 100 µM | OVCAR-5 > 100 µM

COC(=O)c1c(O)ccc2c1c1c(n2CCc2ccc(OC)c(OC)c2)C(=O)c2ccccc2C1=O
inactive: UO-31 13.7 µM | RXF 393 16.8 µM | UACC-62 15.2 µM | MDA-MB-231 22.4 µM | HCC 2998 4.29 µM | Malme-3M 14 µM | SK-MEL-2 16.4 µM | MDA-MB-435 14 µM | SK-MEL-28 11.6 µM | EKVX 20.5 µM | NCI-H522 2.69 µM | HT-29 3.13 µM | NCI/ADR-RES 10.8 µM | HOP-62 16 µM | SNB-19 22.5 µM | OVCAR-3 16.3 µM | ACHN 18.2 µM | SR 14.8 µM | OVCAR-5 19.7 µM

[O-][n+]1nc(N2CCOCC2)nc2ccccc21
inactive: UO-31 > 100 µM | RXF 393 49.5 µM | UACC-62 > 100 µM | MDA-MB-231 > 100 µM | HCC 2998 > 100 µM | Malme-3M > 100 µM | SK-MEL-2 > 100 µM | MDA-MB-435 > 100 µM | SK-MEL-28 > 100 µM | EKVX > 100 µM | NCI-H522 > 100 µM | HT-29 > 100 µM | NCI/ADR-RES > 100 µM | HOP-62 > 100 µM | SNB-19 > 100 µM | SNB-75 > 100 µM | ACHN > 100 µM | OVCAR-5 > 100 µM
